Where two headings read alike, the source gives them in different places.
Tests used:
Test in all cases: microbe, parasite or virus in culture
Format in all cases: cell-based, Hepatitis C virus (HCV)
Settings in all cases: Replicon Assay A
[1] = tested on: HCV replicon 2B
Method in brief: (§1)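 Three-day treatment of replicon cells (2000/well, 5% FBS, 0.5% DMSO), followed by TaqMan RT-PCR of replicon RNA with cyclophilin as internal control.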

[2] = tested on: HCV replicon 1AY93H
Method in brief: as §1

[3] = tested on: HCV replicon 1A
Method in brief: as §1

[4] = Hepatitis C virus, read-out: 2B IC50, HCV replicon 2B
[5] = Hepatitis C virus, read-out: 1A Y93H IC50, HCV replicon 1A Y93H
[6] = Hepatitis C virus, HCV replicon 1A
[7] = read-out: 1A Y93H IC50, replicon 1AY93H
[8] = Hepatitis C virus, read-out: 2B IC50 (nM), replicon 2B
[9] = Hepatitis C virus, read-out: 1A Y93H IC50 (nM), replicon 1AY93H
[10] = read-out: 2B IC50, HCV replicon 2B
[11] = read-out: 1A Y93H IC50, HCV replicon 1A Y93H

SMILES	IC50 ([1]; read-out: 2B IC50, replicon 2B)	IC50 [2, 7]	IC50 ([3]; Hepatitis C virus, replicon 1A)	IC50 [1, 10]	IC50 [2, 11]	also measured
COC(=O)N[C@H](C(=O)N1CCC[C@H]1c1ncc(-c2cc(F)c3c(c2)OC(c2ccc(C4CC4)s2)n2c-3cc3cc(-c4cnc([C@@H]5CCCN5C(=O)[C@@H](NC(=O)OC)C(C)C)[nH]4)ccc32)[nH]1)C(C)C (mixture of isomers) [Compound 510]						IC50 [1, 4]: 0.0488 nM; IC50 [2, 5]: 0.0979 nM; IC50 [3, 6]: 0.00793 nM
COC(=O)N[C@H](C(=O)N1CCC[C@H]1c1ncc(-c2ccc3c(c2)O[C@@H](c2cc4cc(OC)ccc4s2)n2c-3cc3cc(-c4cnc([C@@H]5CCCN5C(=O)[C@@H](NC(=O)OC)C(C)C)[nH]4)ccc32)[nH]1)C(C)C [Compound 758]						IC50 [1, 4]: 0.43 nM; IC50 [2, 5]: 0.17 nM; IC50 [3, 6]: 0.005 nM
CCc1ccc(C2Oc3cc(-c4cnc([C@@H]5CCCN5C(=O)[C@@H](NC(=O)OC)C(C)C)[nH]4)cc(F)c3-c3cc4cc(-c5cnc([C@@H]6CCCN6C(=O)C(NC(=O)OC)C6CCOC(C)(C)C6)[nH]5)ccc4n32)s1 (single isomer, unassigned) [Compound 149]	24.8 nM	25.9 nM				IC50 ([3]; replicon 1A): 0.129 nM
COC(=O)N[C@H](C(=O)N1CCC[C@H]1c1ncc(-c2cc(F)c3c(c2)OC(c2sccc2C2CC2)n2c-3cc3cc(-c4cnc([C@@H]5CCCN5C(=O)[C@@H](NC(=O)OC)C(C)C)[nH]4)ccc32)[nH]1)C(C)C (single isomer, unassigned) [Compound 25]			0.0043 nM			IC50 [1, 8]: 15.1 nM; IC50 [2, 9]: 14.4 nM
CCc1ccc(C2Oc3cc(-c4cnc([C@@H]5CCCN5C(=O)[C@@H](NC(=O)OC)C(C)C)[nH]4)cc(F)c3-c3cc4cc(-c5cnc([C@@H]6C[C@@H](F)CN6C(=O)C(NC(=O)OC)C6CCOC(C)(C)C6)[nH]5)ccc4n32)s1 (single isomer, unassigned) [Compound 260]	11.7 nM	0.047 nM				IC50 ([3]; replicon 1A): 0.001 nM
COC(=O)N[C@H](C(=O)N1CCC[C@H]1c1ncc(-c2ccc3c(c2)OC(c2ccc(C4CC4)s2)n2c-3cc3cc(-c4cnc([C@@H]5CCCN5C(=O)[C@@H](NC(=O)OC)C5CCOCC5)[nH]4)ccc32)[nH]1)C(C)C (single isomer, unassigned) [Compound 334]	0.0768 nM	0.159 nM	0.0024 nM			
COCc1ccc(C2Oc3cc(-c4cnc([C@@H]5CCCN5C(=O)[C@@H](NC(=O)OC)C(C)C)[nH]4)cc(F)c3-c3cc4cc(-c5c[nH]c([C@@H]6CCCN6C(=O)[C@@H](NC(=O)OC)C(C)C)n5)ccc4n32)s1 (single isomer, unassigned) [Compound 511]				1.83 nM	0.401 nM	IC50 [3, 6]: 0.00238 nM
COC(=O)N[C@H](C(=O)N1CCC[C@H]1c1ncc(-c2cc(F)c3c(c2)OC(c2ccc(C(CF)CF)s2)n2c-3cc3cc(-c4cnc([C@@H]5CCCN5C(=O)[C@@H](NC(=O)OC)C(C)C)[nH]4)ccc32)[nH]1)C(C)C (single isomer, unassigned) [Compound 120]	1.44 nM		0.0015 nM			IC50 [2, 9]: 0.1 nM
COC(=O)N[C@H](C(=O)N1CCC[C@H]1c1ncc(-c2cc(F)c3c(c2)OC(c2ccc(CC(C)C)s2)n2c-3cc3cc(-c4cnc([C@@H]5CCCN5C(=O)[C@@H](NC(=O)OC)C(C)C)[nH]4)ccc32)[nH]1)C(C)C (single isomer, unassigned) [Compound 521]				3.49 nM	0.695 nM	IC50 ([3]; HCV replicon 1A): 0.00652 nM
COC(=O)N[C@H](C(=O)N1CCC[C@H]1c1ncc(-c2cc(C)c3c(c2)OC(c2cc(C)c(C)s2)n2c-3cc3cc(-c4cnc([C@@H]5CCCN5C(=O)[C@@H](NC(=O)OC)C(C)C)[nH]4)ccc32)[nH]1)C(C)C (single isomer, unassigned) [Compound 16]	0.171 nM	0.49 nM				IC50 ([3]; replicon 1A): 0.0024 nM
COC(=O)N[C@H](C(=O)N1CCC[C@H]1c1ncc(-c2cc(F)c3c(c2)OC(c2cc4c(s2)CCCO4)n2c-3cc3cc(-c4cnc([C@@H]5CCCN5C(=O)[C@@H](NC(=O)OC)C5CCOC(C)(C)C5)[nH]4)ccc32)[nH]1)C(C)C (single isomer, unassigned) [Compound 412]				0.005 nM	0.008 nM	IC50 ([3]; HCV replicon 1A): 0.0094 nM
CCc1ccc(C2Oc3cc(-c4cnc(C5CCCN5C(=O)C(NC(=O)OC)C5C[C@@H](C)O[C@@H](C)C5)[nH]4)ccc3-c3cc4c(F)c(-c5cnc([C@@H]6CCCN6C(=O)[C@@H](NC(=O)OC)C(C)C)[nH]5)ccc4n32)s1 (single isomer, unassigned) [Compound 358]	2.49 nM	2.62 nM	0.0047 nM			
COC(=O)NC(C(=O)N1CCC[C@H]1c1ncc(-c2ccc3c(c2)cc2n3C(c3ccc(C4CC4)s3)Oc3cc(-c4cnc([C@@H]5CCCN5C(=O)[C@@H](NC(=O)OC)C5CCOCC5)[nH]4)cc(F)c3-2)[nH]1)C(C)(C)F (single isomer, unassigned) [Compound 175]	10.5 nM	9.03 nM				IC50 ([3]; replicon 1A): 0.0077 nM
COC(=O)NC(C(=O)N1[C@@H]2C[C@@H]2C[C@H]1c1ncc(-c2ccc3c(c2)c(F)c2n3C(c3ccc(C4CC4)s3)Oc3cc(-c4cnc([C@@H]5CCCN5C(=O)[C@@H](NC(=O)OC)C(C)C)[nH]4)ccc3-2)[nH]1)C1C[C@@H](C)O[C@@H](C)C1 (single isomer, unassigned) [Compound 643]				0.323 nM	0.179 nM	IC50 ([3]; HCV replicon 1A): 0.0012 nM
COC(=O)N[C@H](C(=O)N1CCC[C@H]1c1nc(-c2ccc3c(c2)OC(c2cc4sccc4s2)n2c-3cc3cc(-c4c[nH]c([C@@H]5C[C@H]6C[C@H]6N5C(=O)[C@@H](NC(=O)OC)C5CCOCC5)n4)ccc32)c[nH]1)C(C)C (mixture of isomers) [Compound 726]						IC50 [1, 4]: 0.16 nM; IC50 [2, 5]: 0.047 nM; IC50 [3, 6]: 0.0063 nM
COC(=O)N[C@H](C(=O)N1CCC[C@H]1c1nc(-c2ccc3c(c2)OC(c2ccc(C)s2)n2c-3cc3cc(-c4c[nH]c([C@@H]5NCCN5C(=O)[C@@H](NC(=O)OC)C(C)C)n4)ccc32)c[nH]1)C(C)C (single isomer, unassigned) [Compound 700]				0.39 nM	1.17 nM	IC50 ([3]; HCV replicon 1A): 0.015 nM
CCc1ccc(C2Oc3cc(-c4cnc([C@@H]5CCCN5C(=O)[C@@H](NC(=O)OC)C(C)C)[nH]4)cc(F)c3-c3cc4cc(-c5cnc([C@@H]6C[C@H]7C[C@H]7N6C(=O)C(NC(=O)OC)C6C[C@@H](C)O[C@@H](C)C6)[nH]5)ccc4n32)s1 (single isomer, unassigned) [Compound 194]			0.0019 nM			IC50 [1, 8]: 0.63 nM; IC50 [2, 9]: 0.095 nM
COC(=O)NC(C(=O)N1CCC[C@H]1c1ncc(-c2ccc3c(c2)cc2n3C(c3ccc(C4CC4)s3)Oc3cc(-c4cnc([C@@H]5C[C@H]6C[C@H]6N5C(=O)[C@@H](NC(=O)OC)C(C)C)[nH]4)cc(F)c3-2)[nH]1)C1C[C@@H](C)O[C@@H](C)C1 (single isomer, unassigned) [Compound 537]				1.1 nM	0.114 nM	IC50 ([3]; HCV replicon 1A): 0.00398 nM
CCc1ccc(C2Oc3cc(-c4cnc([C@@H]5CCCN5C(=O)[C@@H](NC(=O)OC)C(C)C)[nH]4)cc(F)c3-c3cc4cc(-c5cnc([C@@H]6C[C@H]7C[C@H]7N6C(=O)C(NC(=O)OC)C6CCOC(C)(C)C6)[nH]5)ccc4n32)s1 (single isomer, unassigned) [Compound 202]	3.31 nM	0.49 nM				IC50 ([3]; replicon 1A): 0.0013 nM
COC(=O)N[C@H](C(=O)N1CCC[C@H]1c1ncc(-c2cc(F)c3c(c2)OC(c2cc(C)sc2C)n2c-3cc3cc(-c4cnc([C@@H]5CCCN5C(=O)[C@@H](NC(=O)OC)C(C)C)[nH]4)ccc32)[nH]1)C(C)C (single isomer, unassigned) [Compound 319]			0.001 nM			IC50 [1, 8]: 8.06 nM; IC50 [2, 9]: 9.38 nM

Reference: patent US20160257697A1, “THIOPHENE-SUBSTITUTED TETRACYCLIC COMPOUNDS AND METHODS OFUSE THEREOF FOR THE TREATMENT OF VIRAL DISEASES” (priority 2013, published 2016)
